Reference: ChEMBL document CHEMBL5252512, “Recent Progress in the Development of HIV-1 Protease Inhibitors for the Treatment of HIV/AIDS” (J Med Chem, 2016)

Experiments:
[1] = tested on: Human immunodeficiency virus 1; assay: Antiviral activity against HIV1 T13632 infected in human MT4 cells expressing LTR and EGFP assessed as inhibition of virus-induced cytopathic effect by fluorescence microscopic analysis; format: functional, organism-based; conditions: Human immunodeficiency virus 1, T13632, MT4
[2] = tested on: Human immunodeficiency virus 1; assay: Ratio of EC50 for antiviral activity against HIV1-T21217 to EC50 for antiviral activity against wild type HIV1 r13205; format: functional
[3] = tested on: Human immunodeficiency virus 1; assay: Antiviral activity against HIV1 T21055 infected in human MT4 cells expressing LTR and EGFP assessed as inhibition of virus-induced cytopathic effect by fluorescence microscopic analysis; format: functional, organism-based; conditions: Human immunodeficiency virus 1, T21055, MT4
[4] = tested on: Human immunodeficiency virus 1; assay: Antiviral activity against HIV1 T20760 infected in human MT4 cells expressing LTR and EGFP assessed as inhibition of virus-induced cytopathic effect by fluorescence microscopic analysis; format: functional, organism-based; conditions: Human immunodeficiency virus 1, T20760, MT4
[5] = tested on: Human immunodeficiency virus 1; assay: Ratio of EC50 for antiviral activity against HIV1-T13717 to EC50 for antiviral activity against wild type HIV1 r13205; format: functional
[6] = tested on: Human immunodeficiency virus 1; assay: Antiviral activity against wild type HIV1 r13205 infected in human MT4 cells expressing LTR and EGFP assessed as inhibition of virus-induced cytopathic effect by fluorescence microscopic analysis; format: functional, organism-based; conditions: Human immunodeficiency virus 1, r13205, MT4
[7] = tested on: Human immunodeficiency virus 1; assay: Ratio of EC50 for antiviral activity against HIV1-T20760 to EC50 for antiviral activity against wild type HIV1 r13205; format: functional
[8] = tested on: Human immunodeficiency virus 1; assay: Antiviral activity against HIV1 T13572 infected in human MT4 cells expressing LTR and EGFP assessed as inhibition of virus-induced cytopathic effect by fluorescence microscopic analysis; format: functional, organism-based; conditions: Human immunodeficiency virus 1, T13572, MT4
[9] = tested on: Human immunodeficiency virus 1; assay: Ratio of EC50 for antiviral activity against HIV1-T13572 to EC50 for antiviral activity against wild type HIV1 r13205; format: functional
[10] = tested on: Human immunodeficiency virus 1; assay: Ratio of EC50 for antiviral activity against HIV1-T13632 to EC50 for antiviral activity against wild type HIV1 r13205; format: functional
[11] = tested on: Human immunodeficiency virus 1; assay: Antiviral activity against HIV1 T13717 infected in human MT4 cells expressing LTR and EGFP assessed as inhibition of virus-induced cytopathic effect by fluorescence microscopic analysis; format: functional, organism-based; conditions: Human immunodeficiency virus 1, T13717, MT4
[12] = tested on: Human immunodeficiency virus 1; assay: Antiviral activity against HIV1 T13436 infected in human MT4 cells expressing LTR and EGFP assessed as inhibition of virus-induced cytopathic effect by fluorescence microscopic analysis; format: functional, organism-based; conditions: Human immunodeficiency virus 1, T13436, MT4
[13] = tested on: Human immunodeficiency virus 1; assay: Ratio of EC50 for antiviral activity against HIV1-T13436 to EC50 for antiviral activity against wild type HIV1 r13205; format: functional
[14] = tested on: Human immunodeficiency virus 1; assay: Antiviral activity against HIV1 T21217 infected in human MT4 cells expressing LTR and EGFP assessed as inhibition of virus-induced cytopathic effect by fluorescence microscopic analysis; format: functional, organism-based; conditions: Human immunodeficiency virus 1, T21217, MT4
[15] = tested on: Human immunodeficiency virus 1; assay: Ratio of EC50 for antiviral activity against HIV1-T21055 to EC50 for antiviral activity against wild type HIV1 r13205; format: functional
[16] = tested on: Human immunodeficiency virus 1; assay: Antiviral activity against HIV1 LAI infected in human MT2 cells assessed as inhibition of virus-induced cytopathic effect by MTT assay; format: functional, organism-based; conditions: Human immunodeficiency virus 1, LAI
[17] = target: T1, Human immunodeficiency virus type 1 protease (Human immunodeficiency virus 1, UniProt Q72874); assay: Binding affinity to HIV1 recombinant wild type protease expressed in Escherichia coli BL21(DE3) assessed as inhibition constant
[18] = tested on: Human immunodeficiency virus 1; assay: Antiviral activity against multidrug-resistant HIV1-G infected in phytohemagglutinin-activated human PBMC cells assessed as inhibition of virus-induced cytopathic effect measured after 7 days by MTT assay; format: functional, organism-based; conditions: Human immunodeficiency virus 1, G, 168 h
[19] = Apparent permeability in rat astrocytes/rat pericytes/monkey endothelial cells triple cell co-culture system incubated for 30 mins by spectrophotometric analysis; format: ADME, cell-based
[20] = tested on: Human immunodeficiency virus 1; assay: Antiviral activity against wild type HIV1 ERS104pre infected in human PBMC cells assessed as inhibition of virus-induced cytopathic effect measured after 7 days by MTT assay; format: functional, organism-based; conditions: Human immunodeficiency virus 1, ERS104pre, 168 h
[21] = Cytotoxicity against human MT2 cells assessed as reduction in cell viability by MTT assay; format: toxicity, cell-based
[22] = Selectivity index, ratio of CC50 for human MT2 cells to IC50 for antiviral activity against HIV1 LAI; format: toxicity; conditions: read-out: Ratio CC50/EC50
[23] = tested on: Human immunodeficiency virus 1; assay: Ratio of EC50 for antiviral activity against HIV1-C to EC50 for antiviral activity against wild type HIV1 ERS104pre; format: functional
[24] = tested on: Human immunodeficiency virus 1; assay: Antiviral activity against multidrug-resistant HIV1-C infected in phytohemagglutinin-activated human PBMC cells assessed as inhibition of virus-induced cytopathic effect measured after 7 days by MTT assay; format: functional, organism-based; conditions: Human immunodeficiency virus 1, C, 168 h
[25] = Lipophilicity, logD of the compound in Octanol/buffer by shake-flask method; format: physicochemical
[26] = tested on: Human immunodeficiency virus 1; assay: Ratio of EC50 for antiviral activity against HIV1-MM to EC50 for antiviral activity against wild type HIV1 ERS104pre; format: functional
[27] = tested on: Human immunodeficiency virus 1; assay: Ratio of EC50 for antiviral activity against HIV1-B to EC50 for antiviral activity against wild type HIV1 ERS104pre; format: functional
[28] = tested on: Human immunodeficiency virus 1; assay: Antiviral activity against multidrug-resistant HIV1-TM infected in phytohemagglutinin-activated human PBMC cells assessed as inhibition of virus-induced cytopathic effect measured after 7 days by MTT assay; format: functional, organism-based; conditions: Human immunodeficiency virus 1, TM, 168 h
[29] = tested on: Human immunodeficiency virus 1; assay: Ratio of EC50 for antiviral activity against HIV1-G to EC50 for antiviral activity against wild type HIV1 ERS104pre; format: functional
[30] = target: T1, Human immunodeficiency virus type 1 protease; assay: Binding affinity to HIV1 protease assessed as inhibition constant
[31] = tested on: Human immunodeficiency virus 1; assay: Ratio of EC50 for antiviral activity against HIV1-TM to EC50 for antiviral activity against wild type HIV1 ERS104pre; format: functional
[32] = tested on: Human immunodeficiency virus 1; assay: Antiviral activity against multidrug-resistant HIV1-JSL infected in phytohemagglutinin-activated human PBMC cells assessed as inhibition of virus-induced cytopathic effect measured after 7 days by MTT assay; format: functional, organism-based; conditions: Human immunodeficiency virus 1, JSL, 168 h
[33] = tested on: Human immunodeficiency virus 1; assay: Ratio of EC50 for antiviral activity against HIV1-JSL to EC50 for antiviral activity against wild type HIV1 ERS104pre; format: functional
[34] = Lipophilicity, logP of the compound in Octanol/water by shake-flask method; format: physicochemical
[35] = tested on: Human immunodeficiency virus 1; assay: Antiviral activity against multidrug-resistant HIV1-MM infected in phytohemagglutinin-activated human PBMC cells assessed as inhibition of virus-induced cytopathic effect measured after 7 days by MTT assay; format: functional, organism-based; conditions: Human immunodeficiency virus 1, MM, 168 h
[36] = tested on: Human immunodeficiency virus 1; assay: Antiviral activity against multidrug-resistant HIV1-B infected in phytohemagglutinin-activated human PBMC cells assessed as inhibition of virus-induced cytopathic effect measured after 7 days by MTT assay; format: functional, organism-based; conditions: Human immunodeficiency virus 1, B, 168 h
[37] = tested on: Human immunodeficiency virus 1; assay: Ratio of EC50 for antiviral activity against darunavir-resistant HIV1 10P to EC50 for antiviral activity against wild type HIV1 ERS104pre; format: functional
[38] = tested on: Human immunodeficiency virus 1; assay: Ratio of EC50 for antiviral activity against darunavir-resistant HIV1 20P to EC50 for antiviral activity against wild type HIV1 ERS104pre; format: functional
[39] = tested on: Human immunodeficiency virus 1; assay: Antiviral activity against darunavir-resistant HIV1 10P infected in phytohemagglutinin-activated human PBMC cells assessed as inhibition of virus-induced cytopathic effect measured after 7 days by MTT assay; format: functional, organism-based; conditions: Human immunodeficiency virus 1, 10P, 168 h
[40] = tested on: Human immunodeficiency virus 1; assay: Antiviral activity against darunavir-resistant HIV1 20P infected in phytohemagglutinin-activated human PBMC cells assessed as inhibition of virus-induced cytopathic effect measured after 7 days by MTT assay; format: functional, organism-based; conditions: Human immunodeficiency virus 1, 20P, 168 h

| Structure (SMILES) | EC50 [1] [nM] | EC50 [3] [nM] | EC50 [4] [nM] | EC50 [6] [nM] | EC50 [8] [nM] | EC50 [11] [nM] | EC50 [12] [nM] | EC50 [14] [nM] | EC50 [16] [nM] | EC50 [18] [nM] | Papp at 0.5 h [19] [×10⁻⁶ cm/s] | EC50 [20] [nM] | Ratio EC50 [23] | EC50 [24] [nM] | Ratio EC50 [26] | Ratio EC50 [27] | EC50 [28] [nM] | Ratio EC50 [29] | EC50 [32] [nM] | EC50 [36] [nM] | further results |
| --- | --- | --- | --- | --- | --- | --- | --- | --- | --- | --- | --- | --- | --- | --- | --- | --- | --- | --- | --- | --- | --- |
| CC(C)CN(C[C@@H](O)[C@H](Cc1ccccc1)NC(=O)O[C@H]1CO[C@H]2OCC[C@H]21)S(=O)(=O)c1ccc2sc(NC3CCN(C4CCCC4)CC3)nc2c1 | 42 | 308 | 65 | 26 | 1.5 | 68 | 5.1 | 312 | – | – | – | – | – | – | – | – | – | – | – | – | Ratio EC50 [2]: 12; Ratio EC50 [5]: 2.6; Ratio EC50 [7]: 2.5; Ratio EC50 [9]: 0.058; Ratio EC50 [10]: 1.6; Ratio EC50 [13]: 0.2; Ratio EC50 [15]: 12 |
| CC(C)CN(C[C@@H](O)[C@H](Cc1ccccc1)NC(=O)O[C@H]1CO[C@H]2OCC[C@H]21)S(=O)(=O)c1ccc(C(=O)O)cc1 | – | – | – | – | – | – | – | – | > 10000 | – | – | – | – | – | – | – | – | – | – | – | Ki [17]: 0.0127 nM |
| COc1ccc(S(=O)(=O)N(CC(C)C)C[C@@H](O)[C@H](Cc2ccccc2)NC(=O)O[C@H]2CO[C@H]3OCC(F)(F)[C@H]32)cc1 | – | – | – | – | – | – | – | – | 0.8 | 4 | 61.8 | 2.3 | 1 | 2 | 1 | 7 | 4 | 2 | 21 | 14 | CC50 [21]: 17500 nM; selectivity ratio [22]: 21900; logD [25]: -0.29; Ki [30]: 0.8 nM; Ratio EC50 [31]: 2; Ratio EC50 [33]: 10; logP [34]: -0.14; EC50 [35]: 2 nM |
| COC(=O)N[C@H](C(=O)N[C@@H](Cc1ccccc1)[C@@H](O)CN(Cc1ccc(-c2ccccn2)cc1)NC(=O)[C@@H](NC(=O)OC)C(C)(C)C)C(C)(C)C [ATAZANAVIR] | – | – | – | – | – | – | – | – | – | 19.4 | – | 2.1 | 14 | 38.8 | 20 | 174 | 56 | 7 | > 211 | 450 | Ratio EC50 [37]: 77; Ratio EC50 [38]: >370; EC50 [39]: 323 nM; EC50 [40]: > 1000 nM; Ratio EC50 [31]: 24; Ratio EC50 [33]: >78; EC50 [35]: 81 nM |
| Cn1c(=O)c2c(ncn2C)n(C)c1=O [CAFFEINE] | – | – | – | – | – | – | – | – | – | – | 100 | – | – | – | – | – | – | – | – | – | – |
| Cc1cccc(C)c1OCC(=O)N[C@@H](Cc1ccccc1)[C@@H](O)C[C@H](Cc1ccccc1)NC(=O)[C@H](C(C)C)N1CCCNC1=O [LOPINAVIR] | 1600 | 426 | 112 | 28 | 511 | 1900 | 263 | 198 | – | > 160 | – | 7 | – | > 436 | – | – | – | – | > 700 | > 300 | EC50 [39]: > 1000 nM; EC50 [40]: > 1000 nM |
